ChEMBL document CHEMBL4270669 (J Med Chem, 2018)
The source made the active and inactive calls. The calls are words filed in the database; no cut-off is given here.

Tests used:
[1] = Inhibition of TORC2 in human A2058 cells assessed as decrease in PKB/Akt phosphorylation at Ser473 after 1 hr by Western blot analysis; type: cell-based; settings: A2058, 1 h
[2] = target: Serine/threonine-protein kinase mTOR (Homo sapiens, UniProt P42345)
[3] = Inhibition of TORC1 in human A2058 cells assessed as decrease in S6 phosphorylation at Ser235/236 after 1 hr by Western blot analysis; type: cell-based; settings: A2058, 1 h
[4] = target: T1, Phosphatidylinositol 4,5-bisphosphate 3-kinase catalytic subunit alpha isoform (Homo sapiens, UniProt P42336)
T1 sequence (P42336 whole entry, the tested form may be a part, canonical isoform): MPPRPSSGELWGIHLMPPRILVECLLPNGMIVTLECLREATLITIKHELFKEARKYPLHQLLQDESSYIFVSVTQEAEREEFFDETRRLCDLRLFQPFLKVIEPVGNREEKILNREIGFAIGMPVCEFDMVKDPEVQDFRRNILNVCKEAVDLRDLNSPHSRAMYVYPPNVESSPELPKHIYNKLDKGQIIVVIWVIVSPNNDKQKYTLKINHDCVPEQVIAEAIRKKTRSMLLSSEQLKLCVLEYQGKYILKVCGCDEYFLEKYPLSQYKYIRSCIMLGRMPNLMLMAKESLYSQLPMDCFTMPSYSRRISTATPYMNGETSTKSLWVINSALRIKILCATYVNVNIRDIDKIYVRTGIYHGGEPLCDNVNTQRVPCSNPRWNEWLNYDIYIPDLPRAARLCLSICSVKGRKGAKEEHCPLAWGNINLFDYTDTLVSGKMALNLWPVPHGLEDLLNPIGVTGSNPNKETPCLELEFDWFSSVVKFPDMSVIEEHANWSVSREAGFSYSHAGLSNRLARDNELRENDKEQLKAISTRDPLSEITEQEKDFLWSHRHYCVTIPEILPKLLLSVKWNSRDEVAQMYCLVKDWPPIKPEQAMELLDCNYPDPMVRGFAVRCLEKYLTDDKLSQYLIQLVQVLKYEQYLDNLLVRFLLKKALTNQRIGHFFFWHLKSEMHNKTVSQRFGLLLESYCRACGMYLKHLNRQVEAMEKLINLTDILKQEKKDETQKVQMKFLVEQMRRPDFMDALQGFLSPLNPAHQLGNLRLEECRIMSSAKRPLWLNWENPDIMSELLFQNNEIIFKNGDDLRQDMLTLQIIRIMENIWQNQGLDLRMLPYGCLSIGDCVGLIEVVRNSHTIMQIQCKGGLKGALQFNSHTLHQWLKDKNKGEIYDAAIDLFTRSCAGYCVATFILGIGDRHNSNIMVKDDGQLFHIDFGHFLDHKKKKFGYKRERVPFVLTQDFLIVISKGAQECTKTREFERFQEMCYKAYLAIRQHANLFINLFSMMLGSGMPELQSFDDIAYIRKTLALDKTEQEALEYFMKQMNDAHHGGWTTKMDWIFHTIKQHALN

[5] = target: Phosphatidylinositol 3-kinase catalytic subunit type 3 (Homo sapiens, UniProt Q8NEB9); test: Inhibition of human VPS34 (282 to 879 residues) expressed in mammalian expression system by KINOMEscan assay
Chain of Phosphatidylinositol 3-kinase catalytic subunit type 3 (Q8NEB9 whole entry, the tested form may be a part): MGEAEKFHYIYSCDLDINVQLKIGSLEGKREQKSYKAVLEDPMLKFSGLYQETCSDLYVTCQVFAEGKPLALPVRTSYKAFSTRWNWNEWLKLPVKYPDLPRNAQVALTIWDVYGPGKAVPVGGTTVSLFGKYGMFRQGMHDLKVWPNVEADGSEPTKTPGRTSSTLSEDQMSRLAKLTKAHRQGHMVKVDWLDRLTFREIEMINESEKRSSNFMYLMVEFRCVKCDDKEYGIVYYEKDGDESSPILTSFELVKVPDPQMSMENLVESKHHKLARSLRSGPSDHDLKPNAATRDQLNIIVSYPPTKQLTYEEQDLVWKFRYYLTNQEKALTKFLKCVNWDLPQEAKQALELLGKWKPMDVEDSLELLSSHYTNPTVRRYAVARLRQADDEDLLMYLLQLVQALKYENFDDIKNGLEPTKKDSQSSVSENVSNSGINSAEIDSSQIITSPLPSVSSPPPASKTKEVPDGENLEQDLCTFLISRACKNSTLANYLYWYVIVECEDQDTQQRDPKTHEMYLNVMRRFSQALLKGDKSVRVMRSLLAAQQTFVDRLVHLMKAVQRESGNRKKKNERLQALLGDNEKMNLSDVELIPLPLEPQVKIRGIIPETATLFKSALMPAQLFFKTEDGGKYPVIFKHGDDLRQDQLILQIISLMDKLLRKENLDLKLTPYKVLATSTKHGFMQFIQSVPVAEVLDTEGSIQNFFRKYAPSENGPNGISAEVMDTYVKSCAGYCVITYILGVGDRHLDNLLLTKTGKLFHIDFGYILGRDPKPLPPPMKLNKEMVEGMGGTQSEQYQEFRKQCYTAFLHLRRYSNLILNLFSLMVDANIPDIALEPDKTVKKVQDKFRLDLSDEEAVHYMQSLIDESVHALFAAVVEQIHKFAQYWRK

[6] = target: Phosphatidylinositol 4-kinase beta (Homo sapiens, UniProt Q9UBF8)
Chain of Phosphatidylinositol 4-kinase beta (Q9UBF8 whole entry): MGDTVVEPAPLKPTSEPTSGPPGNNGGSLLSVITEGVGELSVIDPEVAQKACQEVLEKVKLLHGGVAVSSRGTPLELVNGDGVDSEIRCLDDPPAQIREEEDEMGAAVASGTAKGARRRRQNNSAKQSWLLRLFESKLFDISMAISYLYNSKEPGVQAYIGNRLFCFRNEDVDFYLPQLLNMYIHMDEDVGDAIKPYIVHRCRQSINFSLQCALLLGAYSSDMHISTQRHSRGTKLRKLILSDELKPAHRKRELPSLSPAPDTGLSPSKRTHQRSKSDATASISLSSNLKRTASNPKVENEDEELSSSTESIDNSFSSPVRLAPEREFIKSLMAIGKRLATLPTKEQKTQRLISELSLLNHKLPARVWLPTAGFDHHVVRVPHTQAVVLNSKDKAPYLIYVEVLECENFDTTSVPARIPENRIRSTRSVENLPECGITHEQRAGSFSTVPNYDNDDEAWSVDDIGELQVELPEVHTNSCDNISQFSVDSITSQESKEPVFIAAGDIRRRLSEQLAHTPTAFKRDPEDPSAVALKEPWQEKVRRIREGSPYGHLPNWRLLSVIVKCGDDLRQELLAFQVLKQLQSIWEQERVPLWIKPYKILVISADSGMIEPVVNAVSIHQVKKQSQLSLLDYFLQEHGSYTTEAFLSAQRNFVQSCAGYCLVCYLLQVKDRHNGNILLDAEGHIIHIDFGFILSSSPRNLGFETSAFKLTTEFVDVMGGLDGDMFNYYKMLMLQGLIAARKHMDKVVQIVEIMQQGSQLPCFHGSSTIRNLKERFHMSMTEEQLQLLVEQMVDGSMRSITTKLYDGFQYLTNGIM
Description: Inhibition of human PI4Kbeta (1 to 828 residues) expressed in mammalian expression system by KINOMEscan assay

Mus musculus [7] = test: Antiepileptic activity in Tsc1flox/flox/GFAP-Cre conditional knocked out mouse model assessed as reduction in seizures at 50 mg/kg, po qd treated from days 21 to 53 postnatal by electroencephalography; type: functional, organism-based
OVCAR-3 = test: Antitumor activity against human OVCAR3 cells xenografted in BALB/C nude mouse assessed as tumor growth inhibition at 50 mg/kg, po administered daily for 28 days relative to control; type: functional; settings: OVCAR-3, po, 672 h, read-out: TGI
Rattus norvegicus [8] = test: Increase in insulin levels in Sprague-Dawley rat plasma at 10 mg/kg, po administered as single dose; type: functional, organism-based
Rattus norvegicus [9] = test: Increase in glucose levels in Sprague-Dawley rat plasma at 10 mg/kg, po administered as single dose after 8 hrs; type: functional, organism-based
Mus musculus [10] = test: Increase in insulin levels in C57BL/6JRj mouse plasma at 50 mg/kg, po administered as single dose; type: functional, organism-based
Mus musculus [11] = test: Toxicity in BALB/C nude mouse xenografted with human OVCAR3 cells assessed as body weight loss at 50 mg/kg, po administered daily for 28 days relative to control; type: organism-based; settings: in vivo, 672 h
Mus musculus [12] = test: Increase in glucose levels in C57BL/6JRj mouse plasma at 50 mg/kg, po administered as single dose; type: functional, organism-based
[13] = target: T2, Phosphatidylinositol 4,5-bisphosphate 3-kinase catalytic subunit delta isoform (Homo sapiens, UniProt O00329)
T2 sequence (O00329 whole entry): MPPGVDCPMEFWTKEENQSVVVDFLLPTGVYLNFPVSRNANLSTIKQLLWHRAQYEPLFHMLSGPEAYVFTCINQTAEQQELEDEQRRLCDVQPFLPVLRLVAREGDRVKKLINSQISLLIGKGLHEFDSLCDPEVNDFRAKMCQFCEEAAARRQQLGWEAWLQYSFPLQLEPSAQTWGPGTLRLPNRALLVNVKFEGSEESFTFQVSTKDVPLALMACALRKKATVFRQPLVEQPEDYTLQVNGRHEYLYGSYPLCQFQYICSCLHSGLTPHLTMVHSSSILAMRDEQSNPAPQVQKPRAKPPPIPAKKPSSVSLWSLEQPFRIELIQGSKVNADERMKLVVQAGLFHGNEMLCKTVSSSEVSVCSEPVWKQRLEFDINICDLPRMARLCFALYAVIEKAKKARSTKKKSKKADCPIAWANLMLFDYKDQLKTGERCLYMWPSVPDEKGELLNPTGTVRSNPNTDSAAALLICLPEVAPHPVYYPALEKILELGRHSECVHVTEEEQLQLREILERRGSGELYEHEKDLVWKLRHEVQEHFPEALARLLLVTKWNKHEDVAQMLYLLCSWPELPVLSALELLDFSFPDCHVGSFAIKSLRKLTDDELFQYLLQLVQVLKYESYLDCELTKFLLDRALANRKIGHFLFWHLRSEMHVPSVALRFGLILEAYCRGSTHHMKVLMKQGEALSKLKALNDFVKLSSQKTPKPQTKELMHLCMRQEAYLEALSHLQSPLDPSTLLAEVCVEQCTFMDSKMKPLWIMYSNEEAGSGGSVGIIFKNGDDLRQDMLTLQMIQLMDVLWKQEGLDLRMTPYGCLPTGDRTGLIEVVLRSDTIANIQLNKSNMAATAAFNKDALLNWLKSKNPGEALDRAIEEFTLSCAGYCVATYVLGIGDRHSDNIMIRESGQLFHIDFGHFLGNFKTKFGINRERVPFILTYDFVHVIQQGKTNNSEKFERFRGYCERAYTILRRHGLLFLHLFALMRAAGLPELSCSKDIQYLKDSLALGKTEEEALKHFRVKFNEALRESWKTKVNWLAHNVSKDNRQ
Description: Inhibition of human PI3Kdelta (108 to 1044 residues) expressed in mammalian expression system by KINOMEscan assay

[14] = target: Phosphatidylinositol 4,5-bisphosphate 3-kinase catalytic subunit gamma isoform (Homo sapiens, UniProt P48736)
Chain of Phosphatidylinositol 4,5-bisphosphate 3-kinase catalytic subunit gamma isoform (P48736 whole entry, canonical isoform): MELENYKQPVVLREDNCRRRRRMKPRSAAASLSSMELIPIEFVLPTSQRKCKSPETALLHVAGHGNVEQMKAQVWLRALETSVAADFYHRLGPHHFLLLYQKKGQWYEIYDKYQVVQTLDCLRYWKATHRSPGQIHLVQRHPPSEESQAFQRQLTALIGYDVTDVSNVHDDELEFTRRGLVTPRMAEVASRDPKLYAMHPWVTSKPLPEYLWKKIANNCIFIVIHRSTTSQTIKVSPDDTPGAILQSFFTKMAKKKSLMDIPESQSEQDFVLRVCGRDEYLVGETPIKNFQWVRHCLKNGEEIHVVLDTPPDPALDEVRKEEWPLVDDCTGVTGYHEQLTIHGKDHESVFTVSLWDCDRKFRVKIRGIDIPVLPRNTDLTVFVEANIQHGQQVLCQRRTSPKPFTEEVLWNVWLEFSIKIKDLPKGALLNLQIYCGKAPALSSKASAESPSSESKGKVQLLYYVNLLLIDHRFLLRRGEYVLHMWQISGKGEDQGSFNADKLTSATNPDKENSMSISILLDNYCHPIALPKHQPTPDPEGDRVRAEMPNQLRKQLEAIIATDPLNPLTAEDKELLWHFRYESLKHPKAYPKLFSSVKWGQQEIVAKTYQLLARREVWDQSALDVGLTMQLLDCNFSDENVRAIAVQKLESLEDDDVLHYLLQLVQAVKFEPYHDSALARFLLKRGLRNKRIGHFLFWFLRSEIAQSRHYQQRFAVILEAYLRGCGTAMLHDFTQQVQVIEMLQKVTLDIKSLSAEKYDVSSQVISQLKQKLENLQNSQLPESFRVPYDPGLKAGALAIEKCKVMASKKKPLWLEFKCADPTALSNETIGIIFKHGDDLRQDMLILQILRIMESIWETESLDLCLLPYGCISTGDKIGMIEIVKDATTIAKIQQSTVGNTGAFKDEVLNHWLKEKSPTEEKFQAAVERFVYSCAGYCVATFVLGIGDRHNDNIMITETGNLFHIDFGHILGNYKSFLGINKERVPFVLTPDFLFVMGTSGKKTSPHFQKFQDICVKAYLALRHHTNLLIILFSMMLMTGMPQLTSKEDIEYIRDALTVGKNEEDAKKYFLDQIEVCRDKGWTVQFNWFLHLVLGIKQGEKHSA
Description: Inhibition of human PI3Kgamma (144 to 1102 residues) expressed in mammalian expression system by KINOMEscan assay

[15] = target: T1, Phosphatidylinositol 4,5-bisphosphate 3-kinase catalytic subunit alpha isoform; remark: listed apart in the source
Description: Inhibition of human PI3Kalpha (108 to 1068 residues) expressed in mammalian expression system by KINOMEscan assay

[16] = target: Phosphatidylinositol 4,5-bisphosphate 3-kinase catalytic subunit beta isoform (Homo sapiens, UniProt P42338)
Chain of Phosphatidylinositol 4,5-bisphosphate 3-kinase catalytic subunit beta isoform (P42338 whole entry, canonical isoform): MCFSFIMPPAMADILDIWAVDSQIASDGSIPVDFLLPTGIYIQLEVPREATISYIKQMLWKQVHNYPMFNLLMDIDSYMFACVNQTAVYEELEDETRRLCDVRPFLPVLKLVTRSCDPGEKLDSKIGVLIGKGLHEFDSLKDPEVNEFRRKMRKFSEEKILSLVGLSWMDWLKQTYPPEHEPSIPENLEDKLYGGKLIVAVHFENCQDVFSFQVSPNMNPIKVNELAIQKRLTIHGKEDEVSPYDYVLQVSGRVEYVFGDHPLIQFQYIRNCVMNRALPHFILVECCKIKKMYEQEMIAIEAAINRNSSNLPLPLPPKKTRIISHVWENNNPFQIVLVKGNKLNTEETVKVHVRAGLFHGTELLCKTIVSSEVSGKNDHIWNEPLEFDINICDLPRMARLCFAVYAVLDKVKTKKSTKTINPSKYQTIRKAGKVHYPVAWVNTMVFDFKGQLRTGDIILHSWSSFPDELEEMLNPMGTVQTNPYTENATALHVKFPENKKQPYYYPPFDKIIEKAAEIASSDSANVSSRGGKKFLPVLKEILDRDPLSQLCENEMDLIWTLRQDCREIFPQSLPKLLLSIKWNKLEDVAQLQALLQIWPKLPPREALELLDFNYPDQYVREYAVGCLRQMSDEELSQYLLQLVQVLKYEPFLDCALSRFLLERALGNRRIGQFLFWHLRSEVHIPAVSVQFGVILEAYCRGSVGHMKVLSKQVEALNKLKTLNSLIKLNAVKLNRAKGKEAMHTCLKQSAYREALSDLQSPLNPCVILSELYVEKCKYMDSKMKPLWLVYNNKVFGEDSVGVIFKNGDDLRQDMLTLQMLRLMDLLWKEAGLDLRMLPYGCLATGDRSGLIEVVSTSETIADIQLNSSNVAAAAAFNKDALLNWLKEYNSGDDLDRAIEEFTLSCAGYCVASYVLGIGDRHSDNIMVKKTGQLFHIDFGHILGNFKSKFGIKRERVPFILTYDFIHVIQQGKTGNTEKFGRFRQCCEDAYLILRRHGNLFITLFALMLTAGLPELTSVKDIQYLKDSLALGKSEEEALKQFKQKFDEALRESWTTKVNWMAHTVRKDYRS
Description: Inhibition of human PI3Kbeta (118 to 1070 residues) expressed in mammalian expression system by KINOMEscan assay

| SMILES | IC50 [1] [µM] | Ki [2] [µM] | IC50 [3] [µM] | Ki [4] [µM] | further results |
| --- | --- | --- | --- | --- | --- |
| Nc1cc(C(F)F)c(-c2cc(N3C4CCC3COC4)nc(N3C4CCC3COC4)n2)cn1 | 0.287 | 0.012 | 0.164 | 2.09 | – |
| Nc1cc(C(F)F)c(-c2nc(N3C4CCC3COC4)cc(N3C4CCC3COC4)n2)cn1 | 0.65 | 0.06 | 0.395 | 2.23 | – |
| CO[C@H]1CC[C@H](N2C(=O)CNc3ncc(-c4ccc(C(C)(C)O)nc4)nc32)CC1 [ONATASERTIB] | – | – | – | – | Kd [5]: 2.5 µM; Kd [6]: 0.039 µM |
| Nc1cc(C(F)(F)F)c(-c2cc(N3CCOCC3)nc(N3CCOCC3)n2)cn1 [BUPARLISIB] | 0.416 | – | 0.553 | – | – |
| Nc1cc(C(F)F)c(-c2nc(N3CCOCC3)nc(N3C4CCC3COC4)n2)cn1 | 0.156 | 0.0112 | 0.113 | 0.0258 | – |
| Nc1cc(C(F)F)c(-c2nc(N3C[C@@H]4C[C@H]3CO4)nc(N3C[C@@H]4C[C@H]3CO4)n2)cn1 | 4.04 | 0.0185 | 1.56 | > 20 | – |
| Nc1cc(C(F)(F)F)c(-c2nc(N3CCOCC3)nc(N3CCOCC3)n2)cn1 [BIMIRALISIB] | – | – | – | – | Activity (Mus musculus [7]): inactive; inhibition in vivo at 50 mg/kg (OVCAR-3): > 50%; Activity (Rattus norvegicus [8]): Active; Activity (Rattus norvegicus [9]): Active; Activity (Mus musculus [10]): Active; Activity (Mus musculus [11]): Non-Toxic; Activity (Mus musculus [12]): Active |
| Nc1cc(C(F)F)c(-c2nc(N3C4CCCC3COC4)nc(N3C4CCCC3COC4)n2)cn1 | 1.21 | 0.0602 | 1.3 | > 20 | – |
| CC1(C)CN(c2nc(-c3cnc(N)cc3C(F)F)nc(N3CCOC(C)(C)C3)n2)CCO1 | 4.82 | 0.0734 | 2.33 | 8.79 | – |
| Nc1cc(C(F)F)c(-c2nc(N3C4COCC3COC4)nc(N3C4COCC3COC4)n2)cn1 | 0.357 | 0.031 | 0.275 | 2.38 | – |
| Nc1cc(C(F)(F)F)c(-c2nc(N3C4CCC3COC4)cc(N3C4CCC3COC4)n2)cn1 | 3.32 | 0.435 | 1.94 | 5.67 | – |
| COc1cc(N)ncc1-c1nc(N2CCOCC2)nc(N2CCOCC2)n1 | 1.85 | 0.483 | 1.92 | 0.693 | – |
| CNC(=O)c1cccc(-c2ccc3c(N4CCOC[C@@H]4C)nc(N4CCOC[C@@H]4C)nc3n2)c1 [VISTUSERTIB] | – | – | – | – | Kd [13]: 1.5 µM; Kd [14]: 8.4 µM; Kd [15]: 0.033 µM; Kd [16]: 3.3 µM; Kd [5]: 23 µM; Kd [6]: > 30 µM |
| CC(C)n1nc(-c2ccc3oc(N)nc3c2)c2c(N)ncnc21 [SAPANISERTIB] | – | – | – | – | Kd [5]: 8.2 µM |
| Nc1cc(C(F)F)c(-c2nc(N3CCOCC3)nc(N3CC4CCC(C3)O4)n2)cn1 | 0.144 | 0.0034 | 0.112 | 0.0237 | – |
| C[C@H]1COC[C@H](C)N1c1nc(-c2cnc(N)cc2C(F)F)nc(N2[C@@H](C)COC[C@@H]2C)n1 | 0.379 | 0.0211 | 0.294 | 0.064 | – |
| Nc1cc(C(F)F)c(-c2nc(N3C[C@H]4C[C@@H]3CO4)nc(N3C[C@H]4C[C@@H]3CO4)n2)cn1 | 17.7 | 0.308 | 12.6 | 4.63 | – |

Continued, in another order:

| IC50 [1] [µM] | Ki [2] [µM] | IC50 [3] [µM] | Ki [4] [µM] | SMILES | further results |
| --- | --- | --- | --- | --- | --- |
| 0.207 | 0.035 | 0.184 | 0.018 | Nc1cc(C(F)F)c(-c2cc(N3CCOCC3)nc(N3CCOCC3)n2)cn1 | – |
| 0.252 | 0.0035 | 0.16 | 0.141 | C[C@@H]1COC[C@H](C)N1c1nc(-c2cnc(N)cc2C(F)F)nc(N2[C@H](C)COC[C@@H]2C)n1 | – |
| 0.397 | 0.0543 | 0.218 | 0.0686 | Nc1cc(CF)c(-c2nc(N3CCOCC3)nc(N3CCOCC3)n2)cn1 | – |
| 1.2 | 0.474 | 2.11 | 0.129 | COC(OC)c1cc(N)ncc1-c1nc(N2CCOCC2)nc(N2CCOCC2)n1 | – |
| 0.63 | 0.0139 | 0.301 | 1.3 | Nc1cc(C(F)F)c(-c2nc(N3CC4CCC(C3)O4)nc(N3CC4CCC(C3)O4)n2)cn1 | – |
| 0.729 | 0.911 | 0.926 | 0.041 | Nc1cc(C(F)(F)F)c(-c2nc(N3CCOCC3)cc(N3CCOCC3)n2)cn1 | – |
| 3.57 | 0.0799 | 1.19 | > 20 | C[C@@H]1COC[C@@H](C)N1c1nc(-c2cnc(N)cc2C(F)F)nc(N2[C@H](C)COC[C@H]2C)n1 | – |
| 0.147 | 0.0096 | 0.138 | 0.0208 | C[C@@H]1COCCN1c1nc(-c2cnc(N)cc2C(F)F)nc(N2CCOCC2)n1 | – |
| 0.243 | 0.042 | 0.256 | 0.029 | Nc1cc(C(F)F)c(-c2nc(N3CCOCC3)cc(N3CCOCC3)n2)cn1 | – |
| 0.341 | 0.0745 | 0.528 | 0.0813 | Nc1cc(CO)c(-c2nc(N3CCOCC3)nc(N3CCOCC3)n2)cn1 | – |
| 0.52 | 0.03 | 0.318 | 2.19 | Nc1cc(C(F)(F)F)c(-c2cc(N3C4CCC3COC4)nc(N3C4CCC3COC4)n2)cn1 | – |
| 0.942 | 0.0328 | 0.526 | 0.632 | Nc1cc(C(F)F)c(-c2nc(N3CCOCC34CCC4)nc(N3CCOCC34CCC4)n2)cn1 | – |
| 0.102 | – | 0.118 | – | Nc1cc(C(F)F)c(-c2nc(N3CCOCC3)nc(N3CCOCC3)n2)cn1 | – |
| 17.9 | 0.551 | 5.77 | > 20 | Nc1cc(C(F)F)c(-c2nc(N3C4COCC3C4)nc(N3C4COCC3C4)n2)cn1 | – |
| 0.354 | 0.0136 | 0.209 | 0.0322 | CC[C@@H]1COCCN1c1nc(-c2cnc(N)cc2C(F)F)nc(N2CCOC[C@H]2CC)n1 | – |
| 0.364 | 0.0126 | 0.31 | 0.633 | C[C@@H]1COCCN1c1nc(-c2cnc(N)cc2C(F)F)nc(N2CCOC[C@H]2C)n1 | – |
| 20.9 | 0.65 | 10.4 | 15.4 | C[C@@H]1CN(c2nc(-c3cnc(N)cc3C(F)F)nc(N3C[C@@H](C)O[C@@H](C)C3)n2)C[C@H](C)O1 | – |
